Organism: Rattus norvegicus
Assay: DrugMatrix - Regimen: Daily Repeat
Assay type: toxicity, organism-based, Sprague-Dawley
Parameters: regimen Daily Repeat, gender Male, age 6-8 weeks
Conditions: in vivo, po, route oral GAVAGE, vehicle 100 % WATER; for ABSOLUTE BASOPHIL / ABSOLUTE EOSINOPHIL / ABSOLUTE LYMPHOCYTE / ABSOLUTE MONOCYTE / ABSOLUTE SEGMENTED NEUTROPHIL / BASOPHIL / EOSINOPHIL / ERYTHROCYTE COUNT / HEMATOCRIT / HEMOGLOBIN / LEUKOCYTE COUNT / LYMPHOCYTE / MEAN CORPUSCULAR HEMOGLOBIN / MEAN CORPUSCULAR HEMOGLOBIN CONCENTRATION / MEAN CORPUSCULAR VOLUME / MONOCYTE / NEUTROPHIL / NUCLEATED RED BLOOD CELLS / PLATELET COUNT: tissue Blood; for ALANINE AMINOTRANSFERASE / ALBUMIN / ALKALINE PHOSPHATASE / ASPARTATE AMINOTRANSFERASE / BLOOD UREA NITROGEN / CARBON DIOXIDE / CHLORIDE / CHOLESTEROL / CREATINE PHOSPHOKINASE / CREATININE / GLUCOSE / LIPASE / PHOSPHORUS / POTASSIUM / SODIUM / TOTAL BILIRUBIN / TOTAL PROTEIN / URIC ACID: tissue Plasma
[1] = 0 mg/kg, 72 h, dose level Control, time 3 day
[2] = 0 mg/kg, 120 h, dose level Control, time 5 day
[3] = 10 mg/kg, 72 h, dose level Low, time 3 day
[4] = 10 mg/kg, 120 h, dose level Low, time 5 day

Structure (SMILES): Fc1ccc([C@@H]2CCNC[C@H]2COc2ccc3c(c2)OCO3)cc1 [PAROXETINE]
- ABSOLUTE BASOPHIL [1]: 0 CELLS/uL
- ABSOLUTE EOSINOPHIL [1]: 32.5 CELLS/uL
- ABSOLUTE LYMPHOCYTE [1]: 9305.83 CELLS/uL
- ABSOLUTE MONOCYTE [1]: 43.83 CELLS/uL
- ABSOLUTE SEGMENTED NEUTROPHIL [1]: 817.83 CELLS/uL
- BASOPHIL [1]: 0%
- EOSINOPHIL [1]: 0.33%
- ERYTHROCYTE COUNT [1]: 5.38 x10E6/uL
- HEMATOCRIT [1]: 33.63%
- HEMOGLOBIN [1]: 13.17 G/DL
- LEUKOCYTE COUNT [1]: 10.2 x10E3/uL
- LYMPHOCYTE [1]: 91.17%
- MEAN CORPUSCULAR HEMOGLOBIN [1]: 24.5 pg
- MEAN CORPUSCULAR HEMOGLOBIN CONCENTRATION [1]: 39.13 G/DL
- MEAN CORPUSCULAR VOLUME [1]: 62.53 fL
- MONOCYTE [1]: 0.5%
- NEUTROPHIL [1]: 8%
- NUCLEATED RED BLOOD CELLS [1]: 0.17 /100WBC
- PLATELET COUNT [1]: 858 x10E3/uL
- ALANINE AMINOTRANSFERASE [1]: 55.67 u/L
- ALBUMIN [1]: 4.07 G/DL
- ALKALINE PHOSPHATASE [1]: 337 u/L
- ASPARTATE AMINOTRANSFERASE [1]: 84 u/L
- BLOOD UREA NITROGEN [1]: 13.17 mg/dL
- CARBON DIOXIDE [1]: 34.17 mmol/L
- CHLORIDE [1]: 99.33 MEQ/L
- CHOLESTEROL [1]: 78.83 mg/dL
- CREATINE PHOSPHOKINASE [1]: 576.83 u/L
- CREATININE [1]: 0.17 mg/dL
- GLUCOSE [1]: 152.67 mg/dL
- LIPASE [1]: 9.5 u/L
- PHOSPHORUS [1]: 10.78 mg/dL
- POTASSIUM [1]: 6.34 MEQ/L
- SODIUM [1]: 144.12 MEQ/L
- TOTAL BILIRUBIN [1]: 0.18 mg/dL
- TOTAL PROTEIN [1]: 6.08 G/DL
- URIC ACID [1]: 0.65 mg/dL
- ABSOLUTE BASOPHIL [2]: 0 CELLS/uL
- ABSOLUTE EOSINOPHIL [2]: 31.17 CELLS/uL
- ABSOLUTE LYMPHOCYTE [2]: 7918.33 CELLS/uL
- ABSOLUTE MONOCYTE [2]: 58.33 CELLS/uL
- ABSOLUTE SEGMENTED NEUTROPHIL [2]: 725.5 CELLS/uL
- BASOPHIL [2]: 0%
- EOSINOPHIL [2]: 0.33%
- ERYTHROCYTE COUNT [2]: 5.32 x10E6/uL
- HEMATOCRIT [2]: 33.53%
- HEMOGLOBIN [2]: 13.17 G/DL
- LEUKOCYTE COUNT [2]: 8.73 x10E3/uL
- LYMPHOCYTE [2]: 90.33%
- MEAN CORPUSCULAR HEMOGLOBIN [2]: 24.82 pg
- MEAN CORPUSCULAR HEMOGLOBIN CONCENTRATION [2]: 39.33 G/DL
- MEAN CORPUSCULAR VOLUME [2]: 63.12 fL
- MONOCYTE [2]: 0.67%
- NEUTROPHIL [2]: 8.67%
- NUCLEATED RED BLOOD CELLS [2]: 0 /100WBC
- PLATELET COUNT [2]: 1144.83 x10E3/uL
- ALANINE AMINOTRANSFERASE [2]: 60.5 u/L
- ALBUMIN [2]: 3.97 G/DL
- ALKALINE PHOSPHATASE [2]: 343.17 u/L
- ASPARTATE AMINOTRANSFERASE [2]: 80.83 u/L
- BLOOD UREA NITROGEN [2]: 15 mg/dL
- CARBON DIOXIDE [2]: 31 mmol/L
- CHLORIDE [2]: 99.75 MEQ/L
- CHOLESTEROL [2]: 71.5 mg/dL
- CREATINE PHOSPHOKINASE [2]: 237.17 u/L
- CREATININE [2]: 0.17 mg/dL
- GLUCOSE [2]: 137 mg/dL
- LIPASE [2]: 11.5 u/L
- PHOSPHORUS [2]: 10.13 mg/dL
- POTASSIUM [2]: 6 MEQ/L
- SODIUM [2]: 145 MEQ/L
- TOTAL BILIRUBIN [2]: 0.13 mg/dL
- TOTAL PROTEIN [2]: 5.82 G/DL
- URIC ACID [2]: 0.62 mg/dL
- ABSOLUTE BASOPHIL [3]: 0 CELLS/uL
- ABSOLUTE EOSINOPHIL [3]: 33 CELLS/uL
- ABSOLUTE LYMPHOCYTE [3]: 7114.67 CELLS/uL
- ABSOLUTE MONOCYTE [3]: 0 CELLS/uL
- ABSOLUTE SEGMENTED NEUTROPHIL [3]: 519 CELLS/uL
- BASOPHIL [3]: 0%
- EOSINOPHIL [3]: 0.33%
- ERYTHROCYTE COUNT [3]: 5.11 x10E6/uL
- HEMATOCRIT [3]: 31.5%
- HEMOGLOBIN [3]: 12.33 G/DL
- LEUKOCYTE COUNT [3]: 7.67 x10E3/uL
- LYMPHOCYTE [3]: 92.67%
- MEAN CORPUSCULAR HEMOGLOBIN [3]: 24.2 pg
- MEAN CORPUSCULAR HEMOGLOBIN CONCENTRATION [3]: 39.2 G/DL
- MEAN CORPUSCULAR VOLUME [3]: 61.7 fL
- MONOCYTE [3]: 0%
- NEUTROPHIL [3]: 7%
- NUCLEATED RED BLOOD CELLS [3]: 0.33 /100WBC
- PLATELET COUNT [3]: 979 x10E3/uL
- ALANINE AMINOTRANSFERASE [3]: 52.67 u/L
- ALBUMIN [3]: 4 G/DL
- ALKALINE PHOSPHATASE [3]: 368 u/L
- ASPARTATE AMINOTRANSFERASE [3]: 88.67 u/L
- BLOOD UREA NITROGEN [3]: 16 mg/dL
- CARBON DIOXIDE [3]: 35.33 mmol/L
- CHLORIDE [3]: 100.33 MEQ/L
- CHOLESTEROL [3]: 67.33 mg/dL
- CREATINE PHOSPHOKINASE [3]: 233 u/L
- CREATININE [3]: 0.14 mg/dL
- GLUCOSE [3]: 119.33 mg/dL
- LIPASE [3]: 9.33 u/L
- PHOSPHORUS [3]: 10.97 mg/dL
- POTASSIUM [3]: 6.17 MEQ/L
- SODIUM [3]: 145.03 MEQ/L
- TOTAL BILIRUBIN [3]: 0.2 mg/dL
- TOTAL PROTEIN [3]: 5.83 G/DL
- URIC ACID [3]: 0.77 mg/dL
- ABSOLUTE BASOPHIL [4]: 0 CELLS/uL
- ABSOLUTE EOSINOPHIL [4]: 0 CELLS/uL
- ABSOLUTE LYMPHOCYTE [4]: 6074.67 CELLS/uL
- ABSOLUTE MONOCYTE [4]: 188.33 CELLS/uL
- ABSOLUTE SEGMENTED NEUTROPHIL [4]: 703.67 CELLS/uL
- BASOPHIL [4]: 0%
- EOSINOPHIL [4]: 0%
- ERYTHROCYTE COUNT [4]: 5.7 x10E6/uL
- HEMATOCRIT [4]: 34.77%
- HEMOGLOBIN [4]: 13.23 G/DL
- LEUKOCYTE COUNT [4]: 6.97 x10E3/uL
- LYMPHOCYTE [4]: 86.67%
- MEAN CORPUSCULAR HEMOGLOBIN [4]: 23.2 pg
- MEAN CORPUSCULAR HEMOGLOBIN CONCENTRATION [4]: 38.07 G/DL
- MEAN CORPUSCULAR VOLUME [4]: 61 fL
- MONOCYTE [4]: 2.33%
- NEUTROPHIL [4]: 11%
- NUCLEATED RED BLOOD CELLS [4]: 0 /100WBC
- PLATELET COUNT [4]: 1176.67 x10E3/uL
- ALANINE AMINOTRANSFERASE [4]: 56.33 u/L
- ALBUMIN [4]: 4.17 G/DL
- ALKALINE PHOSPHATASE [4]: 432.67 u/L
- ASPARTATE AMINOTRANSFERASE [4]: 87.67 u/L
- BLOOD UREA NITROGEN [4]: 17 mg/dL
- CARBON DIOXIDE [4]: 31.67 mmol/L
- CHLORIDE [4]: 99.67 MEQ/L
- CHOLESTEROL [4]: 81 mg/dL
- CREATINE PHOSPHOKINASE [4]: 254 u/L
- CREATININE [4]: 0.19 mg/dL
- GLUCOSE [4]: 152.67 mg/dL
- LIPASE [4]: 9.67 u/L
- PHOSPHORUS [4]: 10.57 mg/dL
- POTASSIUM [4]: 6.09 MEQ/L
- SODIUM [4]: 145.13 MEQ/L
- TOTAL BILIRUBIN [4]: 0.2 mg/dL
- TOTAL PROTEIN [4]: 6.03 G/DL
- URIC ACID [4]: 0.77 mg/dL

— ChEMBL document CHEMBL3885881, “DrugMatrix”
